Data: ChEMBL document CHEMBL4359925, “Rational discovery of a highly novel and selective mTOR inhibitor” (Bioorg Med Chem Lett, 2019)
Active and inactive are the calls of the source. No cut-off for these calls is given here.

Legend:
[1] = Cmax in rat at 31 mg/kg, po; assay type: ADME, organism-based; parameters: dose 31 mg/kg, route oral; conditions: in vivo
[2] = Tmax in rat at 93 mg/kg, po; assay type: ADME, organism-based; conditions: in vivo
[3] = Half-life in dog at 10 mg/kg, po; assay type: ADME, organism-based, Canis lupus familiaris; conditions: in vivo
[4] = Cmax in rat at 95 mg/kg, po; assay type: ADME, organism-based; parameters: dose 95 mg/kg, route oral; conditions: in vivo
[5] = Tmax in dog at 30 mg/kg, po; assay type: ADME, organism-based, Canis lupus familiaris; conditions: in vivo
[6] = Half-life in rat at 4.1 mg/kg, po; assay type: ADME, organism-based; conditions: in vivo
[7] = Tmax in dog at 10 mg/kg, po; assay type: ADME, organism-based, Canis lupus familiaris; conditions: in vivo
[8] = target: Phosphatidylinositol 4,5-bisphosphate 3-kinase catalytic subunit alpha isoform (Homo sapiens, UniProt P42336); experiment: Inhibition of PI3K alpha (unknown origin)
Phosphatidylinositol 4,5-bisphosphate 3-kinase catalytic subunit alpha isoform, sequence (P42336 whole entry, canonical isoform): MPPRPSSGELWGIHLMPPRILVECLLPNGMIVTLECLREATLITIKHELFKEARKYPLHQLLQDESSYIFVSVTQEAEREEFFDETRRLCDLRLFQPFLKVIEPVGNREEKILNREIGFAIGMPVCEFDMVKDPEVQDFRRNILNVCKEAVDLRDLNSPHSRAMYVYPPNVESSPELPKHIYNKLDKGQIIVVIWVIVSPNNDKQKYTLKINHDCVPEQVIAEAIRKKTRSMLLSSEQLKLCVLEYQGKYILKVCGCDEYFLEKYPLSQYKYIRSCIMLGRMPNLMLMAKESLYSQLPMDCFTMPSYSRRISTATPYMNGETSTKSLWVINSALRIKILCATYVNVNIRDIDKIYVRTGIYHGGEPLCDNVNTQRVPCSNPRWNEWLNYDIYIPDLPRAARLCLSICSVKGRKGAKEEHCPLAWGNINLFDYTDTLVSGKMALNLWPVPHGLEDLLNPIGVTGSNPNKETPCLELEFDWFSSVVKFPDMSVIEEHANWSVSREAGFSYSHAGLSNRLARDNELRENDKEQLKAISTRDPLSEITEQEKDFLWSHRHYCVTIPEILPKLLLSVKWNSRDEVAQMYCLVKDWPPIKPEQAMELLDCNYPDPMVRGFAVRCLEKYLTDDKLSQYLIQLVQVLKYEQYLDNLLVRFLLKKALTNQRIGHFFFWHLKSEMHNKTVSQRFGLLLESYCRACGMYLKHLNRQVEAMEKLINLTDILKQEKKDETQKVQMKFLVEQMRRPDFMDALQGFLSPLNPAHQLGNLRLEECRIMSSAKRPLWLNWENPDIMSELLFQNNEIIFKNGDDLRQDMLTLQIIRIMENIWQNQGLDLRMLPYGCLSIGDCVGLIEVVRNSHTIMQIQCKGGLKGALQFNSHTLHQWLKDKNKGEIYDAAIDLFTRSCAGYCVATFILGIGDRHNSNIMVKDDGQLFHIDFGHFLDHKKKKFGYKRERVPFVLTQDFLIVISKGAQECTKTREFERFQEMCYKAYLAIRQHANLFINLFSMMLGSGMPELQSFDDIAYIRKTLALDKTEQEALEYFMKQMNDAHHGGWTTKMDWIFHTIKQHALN

NCI-H1395 [9] = experiment: Additive antiproliferative activity against human NCI-H1395 cells harboring LKB1 mutant in presence of gemcitabine; assay type: functional, cell-based
[10] = Cmax in rat at 30 mg/kg, po; assay type: ADME, organism-based; parameters: dose 30 mg/kg, route oral; conditions: in vivo
DU-145 = experiment: Antiproliferative activity against human DU145 cells; assay type: functional, cell-based
A549 [11] = experiment: Synergistic antiproliferative activity against human A549 cells harboring KRAS G12S mutant in presence of erlotinib; assay type: functional, cell-based
[12] = Cmax in rat at 0.8 mg/kg, iv; assay type: ADME, organism-based; parameters: dose 0.8 mg/kg, route intravenous; conditions: in vivo
NCI-H1395 [13] = experiment: Additive antiproliferative activity against human NCI-H1395 cells harboring BRAF G469A in presence of erlotinib; assay type: functional, cell-based
HCT-116 = experiment: Antiproliferative activity against human HCT116; assay type: functional, cell-based
BXPC-3 = experiment: Antiproliferative activity against human BxPC3 cells; assay type: functional, cell-based
[14] = Half-life in mouse at 2.8 mg/kg, iv; assay type: ADME, organism-based; conditions: in vivo
NCI-H1395 [15] = experiment: Additive antiproliferative activity against human NCI-H1395 cells harboring LKB1 mutant in presence of erlotinib; assay type: functional, cell-based
[16] = Half-life in rat at 95 mg/kg, po; assay type: ADME, organism-based; conditions: in vivo
[17] = Cmax in rat at 93 mg/kg, po; assay type: ADME, organism-based; parameters: dose 93 mg/kg, route oral; conditions: in vivo
[18] = Half-life in rat at 0.8 mg/kg, iv; assay type: ADME, organism-based; conditions: in vivo
A549 [19] = experiment: Synergistic antiproliferative activity against human A549 cells harboring LKB1 mutant in presence of gemcitabine; assay type: functional, cell-based
[20] = Clearance in rat at 0.8 mg/kg, iv; assay type: ADME, organism-based; conditions: in vivo
NCI-H460 [21] = experiment: Synergistic antiproliferative activity against human H460 cells harboring KRAS […] mutant in presence of gemcitabine
[22] = Half-life in rat at 31 mg/kg, po; assay type: ADME, organism-based; conditions: in vivo
[23] = Volume of distribution at steady state in mouse at 10.4 mg/kg, iv; assay type: ADME, organism-based; conditions: in vivo, read-out: Vdss
A2780 = experiment: Antiproliferative activity against human A2780; assay type: functional, cell-based
[24] = Tmax in mouse at 8.7 mg/kg, po; assay type: ADME, organism-based; conditions: in vivo
[25] = Tmax in dog at 0.45 mg/kg, po; assay type: ADME, organism-based, Canis lupus familiaris; conditions: in vivo
[26] = Half-life in mouse at 8.7 mg/kg, po; assay type: ADME, organism-based; conditions: in vivo
A549 [27] = experiment: Synergistic antiproliferative activity against human A549 cells harboring KRAS G12S mutant in presence of gemcitabine; assay type: functional, cell-based
NCI-H460 [28] = experiment: Antiproliferative activity against human H460 cells; assay type: functional, cell-based
[29] = Clearance in mouse at 2.8 mg/kg, iv; assay type: ADME, organism-based; conditions: in vivo
[30] = Half-life in rat at 30 mg/kg, po; assay type: ADME, organism-based; conditions: in vivo
[31] = Half-life in dog at 0.2 mg/kg, iv; assay type: ADME, organism-based, Canis lupus familiaris; conditions: in vivo
NCI-H1650 = experiment: Additive antiproliferative activity against human NCI-H1650 cells harboring EGFR E746-A750del mutant in presence of erlotinib; assay type: functional, cell-based
[32] = Tmax in rat at 31 mg/kg, po; assay type: ADME, organism-based; conditions: in vivo
[33] = Half-life in dog at 0.45 mg/kg, po; assay type: ADME, organism-based, Canis lupus familiaris; conditions: in vivo
[34] = Volume of distribution at steady state in mouse at 2.8 mg/kg, iv; assay type: ADME, organism-based; conditions: in vivo, read-out: Vdss
[35] = Cmax in dog at 0.2 mg/kg, iv; assay type: ADME, organism-based, Canis lupus familiaris; parameters: dose 0.2 mg/kg, route intravenous; conditions: in vivo
[36] = Cmax in rat at 160 mg/kg, po; assay type: ADME, organism-based; parameters: dose 160 mg/kg, route oral; conditions: in vivo
[37] = Cmax in dog at 30 mg/kg, po; assay type: ADME, organism-based, Canis lupus familiaris; parameters: dose 30 mg/kg, route oral; conditions: in vivo
A549 [38] = experiment: Synergistic antiproliferative activity against human A549 cells harboring LKB1 mutant in presence of erlotinib; assay type: functional, cell-based
BT-474 = experiment: Antiproliferative activity against human BT474; assay type: functional, cell-based
[39] = target: Serine/threonine-protein kinase mTOR (Homo sapiens, UniProt P42345); experiment: Inhibition of human mTOR measured after 30 mins in presence of ATP by Lanthascreen TR-FRET assay
HT-29 = experiment: Antiproliferative activity against human HT-29; assay type: functional, cell-based
[40] = Cmax in mouse at 26 mg/kg, po; assay type: ADME, organism-based; parameters: dose 26 mg/kg, route oral; conditions: in vivo
[41] = Half-life in dog at 30 mg/kg, po; assay type: ADME, organism-based, Canis lupus familiaris; conditions: in vivo

Cmax [1]: 1910 to 2700 ng/mL
Tmax [2]: 8.7 h
half-life [3]: 9.9 h
Cmax [4]: 2610 ng/mL
Tmax [5]: 7.3 h
half-life [6]: 15.2 h
Tmax [7]: 10.7 h
IC50 [8]: 1260 nM
Cmax [10]: 1850 to 2400 ng/mL
Cmax [12]: 873 ng/mL
half-life [14]: 2.7 h
half-life [16]: 33.9 h
Cmax [17]: 7220 ng/mL
half-life [18]: 1.8 h
clearance [20]: 6.9 mL/min/kg
half-life [22]: 8.7 to 18.6 h
Vd [23]: 1.16 L/kg
Tmax [24]: 4 h
Tmax [25]: 4 h
half-life [26]: 2.3 h
clearance [29]: 8.5 mL/min/kg
half-life [30]: 9 to 13.5 h
half-life [31]: 7.5 h
Tmax [32]: 8 to 19.3 h
half-life [33]: 10.3 h
Vd [34]: 1.66 L/kg
Cmax [35]: 278 ng/mL
Cmax [36]: 7700 ng/mL
Cmax [37]: 726 ng/mL
IC50 [39]: 12.6 nM
Cmax [40]: 11100 ng/mL
half-life [41]: 9.2 h
Compound: CC(F)(F)CN1C(=O)[C@]2(C)COCCN2c2nc(-c3ccc(NC(=O)NC4CC4)cc3)ncc21
Activity (NCI-H1395 [9]): Active
Activity (DU-145): Active
Activity (A549 [11]): Active
Activity (NCI-H1395 [13]): Active
Activity (HCT-116): Active
Activity (BXPC-3): Active
Activity (NCI-H1395 [15]): Active
Activity (A549 [19]): Active
Activity (NCI-H460 [21]): Active
Activity (A2780): Active
Activity (A549 [27]): Active
Activity (NCI-H460 [28]): Active
Activity (NCI-H1650): Active
Activity (A549 [38]): Active
Activity (BT-474): Active
Activity (HT-29): Active
